Reference: ChEMBL document CHEMBL4190372, “Discovery of a Novel Oral Glucocorticoid Receptor Modulator (AZD9567) with Improved Side Effect Profile” (J Med Chem, 2018)
≈ marks a conversion by molar mass, not a printed value.

Tests used:
[1] = molecular target: T1, Glucocorticoid receptor (Homo sapiens, UniProt P04150); test: Displacement of fluormone RED from human full length glucocorticoid receptor after 4 hrs by fluorescence polarization assay
T1 sequence (P04150 whole entry): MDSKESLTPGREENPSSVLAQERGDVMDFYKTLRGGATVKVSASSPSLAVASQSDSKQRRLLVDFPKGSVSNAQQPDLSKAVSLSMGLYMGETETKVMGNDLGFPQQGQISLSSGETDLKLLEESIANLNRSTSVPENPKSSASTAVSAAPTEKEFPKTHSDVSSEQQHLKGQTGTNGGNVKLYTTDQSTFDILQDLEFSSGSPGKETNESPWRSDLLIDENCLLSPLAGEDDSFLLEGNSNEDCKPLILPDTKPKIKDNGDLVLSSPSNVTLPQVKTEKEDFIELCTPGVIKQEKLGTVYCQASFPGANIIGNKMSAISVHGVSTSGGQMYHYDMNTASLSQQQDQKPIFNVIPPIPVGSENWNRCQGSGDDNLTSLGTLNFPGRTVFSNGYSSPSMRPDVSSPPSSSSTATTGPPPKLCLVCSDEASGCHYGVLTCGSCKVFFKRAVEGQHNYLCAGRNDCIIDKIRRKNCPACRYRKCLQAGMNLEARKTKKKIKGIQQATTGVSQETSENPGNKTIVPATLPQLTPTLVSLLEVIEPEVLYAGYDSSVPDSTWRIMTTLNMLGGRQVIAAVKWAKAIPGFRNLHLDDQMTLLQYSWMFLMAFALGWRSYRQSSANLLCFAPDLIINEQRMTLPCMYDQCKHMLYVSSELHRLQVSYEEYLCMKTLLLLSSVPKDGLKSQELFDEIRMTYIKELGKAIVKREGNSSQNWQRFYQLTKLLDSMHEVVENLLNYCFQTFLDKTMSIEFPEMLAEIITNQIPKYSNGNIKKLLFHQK

[2] = Drug metabolism in human hepatocytes assessed as N-((1R,2S)-1-(3-chloro-4-cyanophenoxy)-1-(6-hydroxypyridin-3-yl)propan-2-yl)-2,2-difluoropropanamide formation; assay type: ADME, cell-based, Hepatocyte
[3] = Aqueous solubility of the compound; assay type: physicochemical; conditions: aqueous; read-out: solubility
[4] = Drug metabolism in rat hepatocytes assessed as N-((1R,2S)-1-(3-chloro-4-cyanophenoxy)-1-(6-hydroxypyridin-3-yl)propan-2-yl)-2,2-difluoropropanamide formation; assay type: ADME, cell-based, Hepatocyte
[5] = molecular target: T1, Glucocorticoid receptor
Description: Transactivation activity at glucocorticoid receptor (unknown origin) expressed in human ChaGoK1 cells incubated for 24 hrs by beta-galactosidase reporter gene assay

[6] = molecular target: T1, Glucocorticoid receptor; remark: listed apart in the source
Description: Transrepression activity at glucocorticoid receptor (unknown origin) expressed in human ChaGoK1 cells assessed as inhibition of PMA-stimulated gene expression incubated for 24 hrs by beta-galactosidase reporter gene assay

[7] = Intrinsic clearance in rat hepatocytes assessed per million cells; assay type: ADME, cell-based, Hepatocyte; conditions: read-out: CLH
[8] = Clearance in rat; assay type: ADME, organism-based; conditions: in vivo
[9] = Drug metabolism in rat hepatocytes treated with N-((1R,2S)-1-(3-chloro-4-cyanophenoxy)-1-(6-methoxypyridin-3-yl)propan-2-yl)-2,2-difluoropropanamide; assay type: ADME, cell-based, Hepatocyte
[10] = Drug metabolism in human hepatocytes treated with N-((1R,2S)-1-(3-chloro-4-cyanophenoxy)-1-(6-methoxypyridin-3-yl)propan-2-yl)-2,2-difluoropropanamide; assay type: ADME, cell-based, Hepatocyte
[11] = molecular target: T1, Glucocorticoid receptor; test: Antagonist activity at glucocorticoid receptor (unknown origin) expressed in human ChaGoK1 cells assessed as inhibition of dexamethasone induced transactivation incubated for 24 hrs by beta-galactosidase reporter gene assay; assay type: cell-based
[12] = tested on: Hepatocyte; test: Stability in rat hepatocytes; assay type: ADME, cell-based
[13] = molecular target: T1, Glucocorticoid receptor; test: Transactivation of GR in cryopreserved human primary hepatocytes assessed as upregulation of TAT mRNA expression level up to 1 uM after 18 hrs by RT-qPCR analysis
[14] = molecular target: T1, Glucocorticoid receptor; remark: listed apart in the source
Description: (§1) Transrepression of GR in human whole blood assessed as inhibition of LPS-induced TNF-alpha release preincubated for 45 mins followed by LPS addition after 18 hrs by AlphaLISA method

[15] = molecular target: T2, Glucocorticoid receptor (Homo sapiens) (UniProt P04150)
T2 sequence (whole entry): T1 sequence (P04150 whole entry)
Description: as §1

[16] = molecular target: T2, Glucocorticoid receptor (Homo sapiens); remark: listed apart in the source
Description: Transrepression of GR in cryopreserved human fetal osteoblasts assessed as inhibition of OPG mRNA expression after 4 hrs by RT-qPCR analysis

[17] = molecular target: T1, Glucocorticoid receptor; conditions: blood
Description: Therapeutic index, ratio of fIC20 for transrepression of GR in cryopreserved human fetal osteoblasts assessed as inhibition of OPG mRNA expression to fIC30 for transrepression of GR in human whole blood assessed as inhibition of LPS-induced TNF-alpha release

[18] = molecular target: T3, Mineralocorticoid receptor (Homo sapiens, UniProt P08235); test: Displacement of [3H]-aldosterone from human mineralocorticoid receptor LBD (729 to 984 residues) after 1 hr by scintillation proximity assay
T3 sequence (P08235 whole entry): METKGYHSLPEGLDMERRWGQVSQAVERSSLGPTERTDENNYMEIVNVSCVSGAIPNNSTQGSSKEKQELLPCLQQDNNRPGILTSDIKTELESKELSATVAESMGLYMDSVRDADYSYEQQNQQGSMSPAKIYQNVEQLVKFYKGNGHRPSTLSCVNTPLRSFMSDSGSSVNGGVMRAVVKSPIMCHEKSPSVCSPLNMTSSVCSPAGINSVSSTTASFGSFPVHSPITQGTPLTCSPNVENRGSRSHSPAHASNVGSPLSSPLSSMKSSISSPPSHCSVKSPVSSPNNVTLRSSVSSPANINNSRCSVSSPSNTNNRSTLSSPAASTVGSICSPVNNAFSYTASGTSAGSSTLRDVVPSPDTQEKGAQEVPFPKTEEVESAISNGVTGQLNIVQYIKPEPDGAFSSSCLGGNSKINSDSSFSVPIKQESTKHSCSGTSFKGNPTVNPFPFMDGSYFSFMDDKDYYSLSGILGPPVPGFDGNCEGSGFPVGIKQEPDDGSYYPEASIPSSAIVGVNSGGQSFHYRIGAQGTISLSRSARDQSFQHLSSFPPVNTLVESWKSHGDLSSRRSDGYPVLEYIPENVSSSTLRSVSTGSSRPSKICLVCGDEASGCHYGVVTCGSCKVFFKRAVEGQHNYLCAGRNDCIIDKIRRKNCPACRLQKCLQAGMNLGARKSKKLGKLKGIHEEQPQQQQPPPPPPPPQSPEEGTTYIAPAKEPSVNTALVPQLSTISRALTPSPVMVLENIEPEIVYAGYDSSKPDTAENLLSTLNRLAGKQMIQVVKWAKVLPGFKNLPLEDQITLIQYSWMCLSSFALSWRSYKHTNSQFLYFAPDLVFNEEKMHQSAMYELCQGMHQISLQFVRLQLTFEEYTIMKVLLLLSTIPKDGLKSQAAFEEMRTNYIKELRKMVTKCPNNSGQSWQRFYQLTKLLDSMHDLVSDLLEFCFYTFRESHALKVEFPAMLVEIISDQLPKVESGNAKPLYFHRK

[19] = molecular target: T4, Estrogen receptor (Homo sapiens, UniProt P03372); test: Binding affinity to human ERalpha expressed in Sf9 cells by fluoligand binding-based fluorescence polarization method
T4 sequence (P03372 whole entry): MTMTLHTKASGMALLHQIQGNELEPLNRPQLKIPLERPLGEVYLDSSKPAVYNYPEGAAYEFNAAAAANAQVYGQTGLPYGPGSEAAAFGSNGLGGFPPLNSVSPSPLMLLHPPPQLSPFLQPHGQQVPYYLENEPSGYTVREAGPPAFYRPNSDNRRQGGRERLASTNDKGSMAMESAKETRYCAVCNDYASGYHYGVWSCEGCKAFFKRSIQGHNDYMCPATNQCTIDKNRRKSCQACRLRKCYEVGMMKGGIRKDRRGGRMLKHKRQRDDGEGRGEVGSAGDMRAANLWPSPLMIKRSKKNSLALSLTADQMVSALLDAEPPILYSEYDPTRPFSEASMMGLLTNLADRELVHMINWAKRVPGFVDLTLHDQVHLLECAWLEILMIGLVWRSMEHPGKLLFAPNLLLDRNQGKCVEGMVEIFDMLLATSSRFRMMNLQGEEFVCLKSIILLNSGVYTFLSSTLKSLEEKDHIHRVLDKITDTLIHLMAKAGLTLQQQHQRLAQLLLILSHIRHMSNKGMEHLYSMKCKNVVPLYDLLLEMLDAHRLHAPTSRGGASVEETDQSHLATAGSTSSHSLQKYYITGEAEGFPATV

[20] = molecular target: Estrogen receptor beta (Homo sapiens, UniProt Q92731); test: Binding affinity to human ERbeta expressed in Sf9 cells by fluoligand binding-based fluorescence polarization method
Estrogen receptor beta, sequence (Q92731 whole entry): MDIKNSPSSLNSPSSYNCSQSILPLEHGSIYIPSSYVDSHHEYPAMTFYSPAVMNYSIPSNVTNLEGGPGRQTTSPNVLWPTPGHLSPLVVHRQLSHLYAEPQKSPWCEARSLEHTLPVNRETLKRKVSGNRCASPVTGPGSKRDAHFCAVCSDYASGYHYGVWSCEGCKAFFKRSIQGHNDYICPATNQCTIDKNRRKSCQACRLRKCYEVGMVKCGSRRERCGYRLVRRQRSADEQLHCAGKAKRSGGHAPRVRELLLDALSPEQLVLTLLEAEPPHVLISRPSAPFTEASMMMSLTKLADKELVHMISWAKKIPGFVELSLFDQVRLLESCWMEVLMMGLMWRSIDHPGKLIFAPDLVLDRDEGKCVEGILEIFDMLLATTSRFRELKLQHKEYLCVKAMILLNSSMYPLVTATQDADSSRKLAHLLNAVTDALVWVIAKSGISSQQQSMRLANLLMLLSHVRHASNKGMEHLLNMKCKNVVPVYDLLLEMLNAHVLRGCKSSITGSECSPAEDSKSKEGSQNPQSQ

[21] = Tmax in Han-Wistar rat at 3.5 mg/kg, po; assay type: ADME, organism-based; conditions: in vivo
[22] = tested on: Rattus norvegicus; test: Dose normalized Cmax in Han-Wistar rat at 3.5 mg/kg, po; assay type: ADME, organism-based; conditions: in vivo
[23] = Terminal half life in Han-Wistar rat at 0.9 mg/kg, iv; assay type: ADME, organism-based; conditions: in vivo, read-out: beta t1/2 (converted)
[24] = Terminal half life in Han-Wistar rat at 3.5 mg/kg, po; assay type: ADME, organism-based; conditions: in vivo, read-out: beta t1/2 (converted)
[25] = tested on: Rattus norvegicus; test: Dose normalized AUC (0 to infinity) in Han-Wistar rat at 3.5 mg/kg, po; assay type: ADME, organism-based; conditions: in vivo
[26] = Clearance in Han-Wistar rat at 0.9 mg/kg, iv; assay type: ADME, organism-based; conditions: in vivo
[27] = Volume of distribution at steady state in Han-Wistar rat at 0.9 mg/kg, iv; assay type: ADME, organism-based; conditions: in vivo, read-out: Vdss
[28] = tested on: Rattus norvegicus; test: Antiinflammatory activity in streptococcal cell wall reactivation Lewis rat model assessed as reduction of joint swelling at 5 mg/kg administered once daily for 8 days by oral gavage starting 1 day prior to streptococcal cell wall challenge measured during 6 days post challenge relative to control; assay type: functional; design: scale not given: the % may be the effect or the level left
[29] = tested on: Rattus norvegicus; test: Antiinflammatory activity in streptococcal cell wall reactivation Lewis rat model assessed as reduction of joint swelling at 20 mg/kg administered once daily for 8 days by oral gavage starting 1 day prior to streptococcal cell wall challenge measured during 6 days post challenge relative to control; assay type: functional; design: scale not given: the % may be the effect or the level left
[30] = molecular target: T1, Glucocorticoid receptor; conditions: hepatocytes, 18 h
Description: Transactivation of GR in cryopreserved human primary hepatocytes assessed as upregulation of TAT mRNA expression level after 18 hrs by RT-qPCR analysis

COc1ccc([C@@H](Oc2ccc(C#N)c(Cl)c2)[C@H](C)NC(=O)C(C)(F)F)cn1
IC50 [1]: < 4 nM
Drug metabolism [2]: Metabolite_Detected
solubility [3]: 100 µM (≈ 41 µg/mL)
Drug metabolism [4]: Metabolite_Detected
EC50 [5]: 33 nM
IC50 [6]: 9.3 nM

C[C@H](NC(=O)C(C)(F)F)[C@H](Oc1ccc(C#N)cc1Cl)c1cnc(C2CC2)nc1
IC50 [1]: < 4.1 nM
solubility [3]: 430 µM (≈ 181 µg/mL)
hepatocyte CLint [7]: 3.4 µL/min/1e6 cells
clearance [8]: 7.3 mL/min/kg
EC50 [5]: 21 nM
IC50 [6]: 7.8 nM

COc1ccc([C@@H](Oc2ccc(C#N)cc2Cl)[C@H](C)NC(=O)C(C)(F)F)cn1
IC50 [1]: 7.1 nM
solubility [3]: 85 µM (≈ 34.8 µg/mL)
hepatocyte CLint [7]: 93 µL/min/1e6 cells
clearance [8]: 22 mL/min/kg
EC50 [5]: 43 nM
IC50 [6]: 16 nM

C[C@H](NC(=O)C(C)(F)F)[C@H](Oc1ccc(C#N)c(Cl)c1)c1ccc(O)nc1
Drug metabolism [9]: Metabolite_Detected
Drug metabolism [10]: Metabolite_Detected

Cc1nnc(C(=O)N[C@@H](C(C)O)[C@H](Oc2ccc3c(cnn3-c3ccc(F)cc3)c2)c2cc(F)cc(F)c2)o1 (single isomer, unassigned)
IC50 [1]: 16 nM
IC50 [11]: 270 nM
solubility [3]: 0.9 µM (≈ 0.484 µg/mL)
Stability [12]: Stable
Activity [13]: Not Active
EC50 [5]: 3.5 nM
IC50 [6]: 1.6 nM
IC50 [14]: 180 nM
fIC30 [15]: 0.53 nM
fIC20 [16]: 0.04 nM
TI [17]: 0.076

C[C@]12C=CC(=O)C=C1CC[C@@H]1[C@@H]2[C@@H](O)C[C@@]2(C)[C@H]1CC[C@]2(O)C(=O)CO [PREDNISOLONE]
solubility [3]: 310 µM (≈ 112 µg/mL)
IC50 [18]: 11 nM
IC50 [19]: > 100000 nM
IC50 [20]: > 100000 nM
Tmax [21]: 16.8 min
Cmax/dose [22]: 100 nM
half-life [23]: 24 min
half-life [24]: 150 min
AUC/dose [25]: 0.094 µM·h
clearance [26]: 90 mL/min/kg
Vd [27]: 1.2 L/kg
Activity [28]: 59%
Activity [29]: 73%
fEC50 [30]: 24 nM
fIC20 [16]: 0.88 nM
